Laboratory results reported in US20130310352A1, “DEXAMETHASONE COMBINATION THERAPY” (priority 2010, published 2013).

Experiments:
[1] = tested on: MM cell lines ARP1, MM.1S and MM.1R; assay: Apoptosis in coculture with BMSCs; type: cell-based, human; conditions: 10 μM compound A, 24 hours, BMSC coculture
Method: For this purpose, BMSCs isolated from MM patient were cocultured with MM cell lines ARP1, MM.1S and MM.1R. The cells were treated with or without 10 μM of compound A for 24 hours. As a positive control, MM.1S cells were cocultured with or without BMSC and treated with or without 40 μg/ml of dexamethasone for 24 hours. After treatment, the MM cells were identified as CD138+ cells by APC-CD138 staining.
MM cell lines ARP1, MM.1S and MM.1R were cultured with 10 μM compound A for 3 days. rhIL-6 were added to final concentration of 5 ng/ml. As a positive control, MM.1S cells were treated with 40 μg/ml dexamethasone in the presence of 5 ng/ml of rhIL6 for the same time. Cells apoptosis rate was measured by annexin V staining. (B). Same MM cells were co-cultured with or without MM BMSC, and treated with 10 μM of compound A for 1 day. As a positive control, MM.1S cells were cocultured with or without BMSC and treated with 40 μg/ml dexamethasone for 1 day. CD138+ MM cells apoptosis rate was measured by Annexin V staining.

[2] = tested on: MM cell lines ARP1, ARK, MM.1S, MM.1R and U266; assay: MTS cell growth assay, all tested MM cell lines; type: cell-based, human; conditions: 0 to 1 mM, 1 or 3 days
Method: (§1) MM cell lines ARP1, ARK, MM.1S, MM.1R and U266 were maintained in RPMI-1640 medium supplemented with 10% fetal bovine serum, 100 U/ml penicillin and 100 μg/ml streptomycin at 37° C. and 5% CO2 Primary MM cells and MM BMSCs were isolated from bone marrow aspirates of myeloma patients. PBMCs were obtained from healthy volunteers. The study was approved by the Institutional Review Board at The University of Texas M.D. Anderson Cancer Center. Anti-caspase-3, caspase-9, PARP, Bim, XIAP, cyclin D1, pp 70S6K (Thr389) and p27(Kip1) antibodies were purchased from Cell Signaling. Anti-bcl-2, Bc1-XL, Akt, pAkt (Thr 308), pAkt (Ser 473), p70S6K and β-actin antibodies were purchased from Santa Cruz. Compound A was dissolved in DMSO at 10 mM as stock solution. Dexamethasone and Propidium iodide (PI) were purchased from Sigma-Aldrich. Recombinant human IL6 was purchased from R&D Systems. FITC conjugated Annexin V was obtained from Invitrogen.
All experiments were performed in triplicate.
(A). Five MM cell lines ARP1, ARK, MM.1S, MM.1R and U266 were cultured in the presence of 0 to 1 mM compound A. Cells were harvested after 1 day or 3 days of treatment. Compound A induced MM cell apoptosis were measured by Annexin V staining as described in Materials and Methods. (B). Same MM cell lines were treated with 0 to 1 mM compound A for 1 or 3 days. Cell growths were assessed by MTS assay. (C). […]

[3] = tested on: p27 (Kip1) and cyclin D1 in MM cells; assay: Immunoblotting, cell cycle regulators; type: cell-based, human; conditions: 10 μM compound A
Method: as §1
(A). […] Compound A induced activation and cleavage of caspase-3, caspase-9 and PARP is shown. (B). Same MM cells treated with 10 μM compound A were lysed for western blotting. (C) RP1 cells were treated with 10 μM compound A for 1, 6, 12 and 24 hours.

ARP1 cells [4] = assay: Cell cycle analysis (PI, flow cytometry); type: cell-based, human; conditions: ARP1, 1 μM, 24 hours
Method: MM cell lines ARP1, MM.1S and MM.1R were cultured with or without 1 μM compound A for 24 hours. Then, cells were harvested and permeabilized in 70% ethanol at 4° C. for overnight, and incubated with 50 μg/ml PI and 20 μg/ml RNase A for 15 min. DNA content was analyzed by flow cytometry and FlowJo software.
To study the mechanism of compound A induced MM cells growth inhibition and apoptosis, it was examined whether compound A treatment affects MM cell cycle.
(A). Representative histogram of ARP1 treated with 1 μM compound A for 1 day. (B). […] Cell cycle was tested as described.

ARP1 cells [5] = assay: Established MM model in SCID mice; type: in vivo; conditions: 5 μmol per kg per day intraperitoneal, versus PBS control
Method: Six to eight week old female SCID mice were housed and monitored in MD. Anderson Cancer Center animal research facility. All experimental procedures and protocols had been approved by the Institutional Animal Care and Use Committee at The University of Texas M.D. Anderson Cancer Center. SCID mice were subcutaneously inoculated in the right flank with 1 million ARP1 cells suspended in 50 μl PBS. After palpable tumor developed (tumor diameters ≧5 mm), mice were treated with daily intraperitoneal injection of PBS or compound A (5 μmol per kg per day). Tumor sizes were measured every 5 days, and blood samples were collected with the same period. Tumor burdens were evaluated by measuring tumor size and detecting circulating human kappa chain.
Levels of human kappa chain in mice serum were measured by a quantitative ELISA (Bethyl Laboratories Inc) followed the vendor's protocol.
To examine compound A anti-MM effects in vivo, human MM model in SCID mice were established as described in Materials and Methods. When palpable tumors developed (≧5 mm diameters), mice (10 per group) received intraperitoneal injection of compound A (5 μmol per kg per day) or vehicle control PBS daily.
SCID mice were inoculated subcutaneously in the right flank with 1×10^6 ARP1 cells. Three to 4 weeks later when palpable tumors (≧5 mm in diameter) developed, mice (10 per group) were treated with intraperitoneal injections of PBS or compound A (100 nmol per mouse per day) daily. Tumor burdens were measured as (A) tumor volumes and (B) levels of circulating human kappa china in SCID mice sera detected by ELSA, and (C) survival of tumor-bearing mice.

[6] = tested on: MM cell lines ARP1, ARK, MM.1S, MM.1R and U266; assay: Annexin V apoptosis assay, MM cell lines; type: cell-based, human
Method: Briefly, MM cells were cultured in 24-well plates and treated with 0 to 1 mM final concentrations of compound A for 24 or 72 hours. The cells were washed twice with cold PBS and resuspended in Annexin V binding buffer (Invitrogen). MM cells were stained with FITC-conjugated Annexin V and propidium iodide (PI) for 15 min at room temperature. Apoptotic cells were determined as Annexin V positive cells.
To evaluate the effect of compound A on myeloma cells, MM cell lines ARP1, ARK, MM.1S, MM.1R and U266 were treated with different doses of compound A for 24 hours or 72 hours. Compound A induced MM cells apoptosis were measured as described in Materials and Methods.
Five MM cell lines ARP1, ARK, MM.1S, MM.1R and U266 were cultured in the presence of 0 to 1 mM compound A. Cells were harvested after 1 day or 3 days of treatment. Compound A induced MM cell apoptosis were measured by Annexin V staining as described in Materials and Methods. […] Same MM cell lines were treated with 0 to 1 mM compound A for 1 or 3 days. […] Representative histograms of primary MM cells treated with compound A. (D). […] Cells were treated with different doses of compound A for 1 day.

With `Nc1cc(C(F)(F)F)c(-c2cc(N3CCOCC3)nc(N3CCOCC3)n2)cn1` [compound A, 5-(2,6-di-morpholin-4-yl-pyrimidin-4-yl)-4-trifluoromethyl-pyridin-2-ylamine] the “effect of BMSCs on compound A induced MM cell apoptosis” value [1] was “did not protect”, the “MM cells growth inhibition” value [2] was “dose dependent growth inhibition” and the “cyclin D1 expression” value [3] was “down-regulated”. For the same molecule, the “p27 (Kip1) protein expression” value [3] was “up-regulated”, the G1 phase cells (ARP1 cells [4]) was “increased” and the S phase cells (ARP1 cells [4]) was “decreased”. The “survival of tumor-bearing mice” value (ARP1 cells [5]) was “significantly prolonged”, the “tumor burden measured by tumor volume” value (ARP1 cells [5]; P<0.05) was “significantly smaller tumor burdens” and the “tumor burden measured by level of circulating human kappa chain” value (ARP1 cells [5]; P<0.05, ELISA) was “significantly smaller tumor burdens”. The MM cells apoptosis ([6]; 0 to 1 mM, 24 hours or 72 hours, Annexin V) was “in both a dose dependent and a time dependent manner” and the “concentration inducing significant apoptosis in all tested MM cell lines” value ([6]; 24 hours, P<0.05 compared with control) was no less than 10 µM.
